BindingDB's records for doi:10.1016/0167-0115(94)90537-1 (Universit&Eacute, 1994)
Square brackets hold non-standard residues; d marks the D form. Peptide text beside a SMILES is read from it. ξ: configuration not given here. Ile(3ξ) = CCC(C)[C@H](N)C(=O)O

Each molecule was assayed against T1, VIP peptides (Rattus norvegicus, UniProt P01283).
T1 sequence (P01283 whole entry): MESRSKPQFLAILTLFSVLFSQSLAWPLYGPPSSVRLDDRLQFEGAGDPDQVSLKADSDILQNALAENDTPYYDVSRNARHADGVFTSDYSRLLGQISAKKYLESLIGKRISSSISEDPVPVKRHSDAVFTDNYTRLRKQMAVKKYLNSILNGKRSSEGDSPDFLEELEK

Compound | Ki [nM]
CC[C@H](C)[C@H](NC(=O)[C@H](CO)NC(=O)[C@H](CC(N)=O)NC(=O)[C@H](CC(C)C)NC(=O)[C@H](Cc1ccc(O)cc1)NC(=O)[C@H](CCCCN)NC(=O)[C@H](CCCCN)NC(=O)[C@@H](NC(=O)[C@H](C)NC(=O)[C@H](CCSC)NC(=O)[C@H](CCC(N)=O)NC(=O)[C@H](CCCCN)NC(=O)[C@H](CCCN=C(N)N)NC(=O)[C@H](CC(C)C)NC(=O)[C@H](CCCN=C(N)N)NC(=O)[C@@H](NC(=O)[C@H](Cc1ccc(O)cc1)NC(=O)[C@H](CC(N)=O)NC(=O)[C@H](CC(=O)O)NC(=O)[C@@H](NC(=O)[C@H](Cc1ccccc1)NC(=O)[C@@H](NC(=O)[C@H](C)NC(=O)[C@H](CC(=O)O)NC(=O)[C@H](CO)NC(=O)[C@H](Cc1cnc[nH]1)NC(C)=O)C(C)C)[C@@H](C)O)[C@@H](C)O)C(C)C)C(=O)N[C@@H](CC(C)C)C(=O)N[C@@H](CC(N)=O)C(N)=O [Acetyl-His1-VIP] | 15
CC[C@H](C)[C@H](NC(=O)[C@H](C)NC(=O)[C@H](CC(=O)O)NC(=O)[C@H](CO)NC(=O)[C@@H](N)Cc1cnc[nH]1)C(=O)N[C@@H](Cc1ccccc1)C(=O)N[C@H](C(=O)N[C@@H](CCC(N)=O)C(=O)N[C@@H](CCC(N)=O)C(=O)N[C@@H](Cc1ccc(O)cc1)C(=O)N[C@@H](CO)C(=O)N[C@@H](CCCCN)C(=O)N[C@@H](CC(C)C)C(=O)N[C@@H](CC(C)C)C(=O)N[C@@H](C)C(=O)N[C@@H](CCCCN)C(=O)N[C@@H](CC(C)C)C(=O)N[C@@H](C)C(=O)N[C@@H](CC(C)C)C(=O)N[C@@H](CCC(N)=O)C(=O)N[C@@H](CCCCN)C(=O)N[C@@H](Cc1ccc(O)cc1)C(=O)N[C@@H](CC(C)C)C(=O)N[C@@H](C)C(=O)N[C@@H](CO)C(=O)N[C@H](C(=O)N[C@@H](CC(C)C)C(=O)NCC(=O)N[C@@H](CO)C(=O)N[C@@H](CCCNC(=N)N)C(=O)N[C@H](C(=O)N[C@@H](CO)C(=O)N1CCC[C@H]1C(=O)N1CCC[C@H]1C(=O)N1CCC[C@H]1C(N)=O)[C@@H](C)O)[C@@H](C)CC)[C@@H](C)O [CAS_89468-62-2] (H-HSDAIFTQQYSKLLAKLALQKYLASILGSRTSPPP-NH2) | 30
[C][C][C]([C])[C@H]([N]C(=O)[C][N]C(=O)[C@H]([C][C]C([O])=O)[N]C(=O)[C@@H]([N])[C][O])C(=O)[N][C@@H]([C]c1ccccc1)C(=O)[N][C@H](C(=O)[N][C@@H]([C]C([O])=O)C(=O)[N][C@@H]([C][O])C(=O)[N][C@@H]([C]c1ccc([O])cc1)C(=O)[N][C@@H]([C][O])C(=O)[N][C@@H]([C][C][C]N=C([N])[N])C(=O)[N][C@@H]([C]c1ccc([O])cc1)C(=O)[N][C@@H]([C][C][C]N=C([N])[N])C(=O)[N][C@@H]([C][C][C][C][N])C(=O)[N][C@@H]([C][C]C([N])=O)C(=O)[N][C@@H]([C][C]S[C])C(=O)[N][C@@H]([C])C(=O)[N][C@@H]([C]([C])[C])C(=O)[N][C@@H]([C][C][C][C][N])C(=O)[N][C@@H]([C][C][C][C][N])C(=O)[N][C@@H]([C]c1ccc([O])cc1)C(=O)[N][C@@H]([C][C]([C])[C])C(=O)[N][C@@H]([C])C(=O)[N][C@@H]([C])C(=O)[N][C@@H]([C]([C])[C])C(=O)[N][C@@H]([C][C]([C])[C])C([N])=O)[C@@H]([C])[O] [PACAP(2-27)] | 30
CCC(C)[C@H](NC(=O)CNC(=O)[C@H](CC(=O)O)NC(=O)[C@@H](N)CO)C(=O)N[C@@H](Cc1ccccc1)C(=O)N[C@H](C(=O)N[C@@H](CC(=O)O)C(=O)N[C@@H](CO)C(=O)N[C@@H](Cc1ccc(O)cc1)C(=O)N[C@@H](CO)C(=O)N[C@@H](CCCN=C(N)N)C(=O)N[C@@H](Cc1ccc(O)cc1)C(=O)N[C@@H](CCCN=C(N)N)C(=O)N[C@@H](CCCCN)C(=O)N[C@@H](CCC(N)=O)C(=O)N[C@@H](CCSC)C(=O)N[C@@H](C)C(=O)N[C@H](C(=O)N[C@@H](CCCCN)C(=O)N[C@@H](CCCCN)C(=O)N[C@@H](Cc1ccc(O)cc1)C(=O)N[C@@H](CC(C)C)C(=O)N[C@@H](C)C(=O)N[C@@H](C)C(=O)N[C@H](C(=O)N[C@@H](CC(C)C)C(=O)NCC(=O)N[C@@H](CCCCN)C(=O)N[C@@H](CCCN=C(N)N)C(=O)N[C@@H](Cc1ccc(O)cc1)C(=O)N[C@@H](CCCCN)C(=O)N[C@@H](CCC(N)=O)C(=O)N[C@@H](CCCN=C(N)N)C(=O)N[C@H](C(=O)N[C@@H](CCCCN)C(=O)N[C@@H](CC(N)=O)C(=O)N[C@@H](CCCCN)C(N)=O)C(C)C)C(C)C)C(C)C)[C@@H](C)O (some centres undefined) [PACAP(2-38)] (H-SDG[Ile(3ξ)]FTDSYSRYRKQMAVKKYLAAVLGKRYKQRVKNK-NH2) | 80

Further lines, results first:

Ki [nM] | Compound
2 | CC[C@H](C)[C@H](NC(=O)CNC(=O)[C@H](CCC(=O)O)NC(=O)[C@H](CO)NC(=O)[C@@H](N)Cc1cnc[nH]1)C(=O)N[C@@H](Cc1ccccc1)C(=O)N[C@H](C(=O)N[C@@H](CC(=O)O)C(=O)N[C@@H](CO)C(=O)N[C@@H](Cc1ccc(O)cc1)C(=O)N[C@@H](CO)C(=O)N[C@@H](CCCNC(=N)N)C(=O)N[C@@H](Cc1ccc(O)cc1)C(=O)N[C@@H](CCCNC(=N)N)C(=O)N[C@@H](CCCCN)C(=O)N[C@@H](CCC(N)=O)C(=O)N[C@@H](CCSC)C(=O)N[C@@H](C)C(=O)N[C@H](C(=O)N[C@@H](CCCCN)C(=O)N[C@@H](CCCCN)C(=O)N[C@@H](Cc1ccc(O)cc1)C(=O)N[C@@H](CC(C)C)C(=O)N[C@@H](C)C(=O)N[C@@H](C)C(=O)N[C@H](C(=O)N[C@@H](CC(C)C)C(N)=O)C(C)C)C(C)C)[C@@H](C)O [PACAP(1-27)]
2000 | CCC(C)[C@H](NC(=O)CNC(=O)[C@@H](N)CC(=O)O)C(=O)N[C@@H](Cc1ccccc1)C(=O)N[C@H](C(=O)N[C@@H](CC(=O)O)C(=O)N[C@@H](CO)C(=O)N[C@@H](Cc1ccc(O)cc1)C(=O)N[C@@H](CO)C(=O)N[C@@H](CCCN=C(N)N)C(=O)N[C@@H](Cc1ccc(O)cc1)C(=O)N[C@@H](CCCN=C(N)N)C(=O)N[C@@H](CCCCN)C(=O)N[C@@H](CCC(N)=O)C(=O)N[C@@H](CCSC)C(=O)N[C@@H](C)C(=O)N[C@H](C(=O)N[C@@H](CCCCN)C(=O)N[C@@H](CCCCN)C(=O)N[C@@H](Cc1ccc(O)cc1)C(=O)N[C@@H](CC(C)C)C(=O)N[C@@H](C)C(=O)N[C@@H](C)C(=O)N[C@H](C(=O)N[C@@H](CC(C)C)C(N)=O)C(C)C)C(C)C)[C@@H](C)O (some centres undefined) [PACAP(3-27)] (H-DG[Ile(3ξ)]FTDSYSRYRKQMAVKKYLAAVL-NH2)
800 | CCC(C)[C@H](NC(=O)CNC(=O)[C@@H](N)CC(=O)O)C(=O)N[C@@H](Cc1ccccc1)C(=O)N[C@H](C(=O)N[C@@H](CC(=O)O)C(=O)N[C@@H](CO)C(=O)N[C@@H](Cc1ccc(O)cc1)C(=O)N[C@@H](CO)C(=O)N[C@@H](CCCN=C(N)N)C(=O)N[C@@H](Cc1ccc(O)cc1)C(=O)N[C@@H](CCCN=C(N)N)C(=O)N[C@@H](CCCCN)C(=O)N[C@@H](CCC(N)=O)C(=O)N[C@@H](CCSC)C(=O)N[C@@H](C)C(=O)N[C@H](C(=O)N[C@@H](CCCCN)C(=O)N[C@@H](CCCCN)C(=O)N[C@@H](Cc1ccc(O)cc1)C(=O)N[C@@H](CC(C)C)C(=O)N[C@@H](C)C(=O)N[C@@H](C)C(=O)N[C@H](C(=O)N[C@@H](CC(C)C)C(=O)NCC(=O)N[C@@H](CCCCN)C(=O)N[C@@H](CCCN=C(N)N)C(=O)N[C@@H](Cc1ccc(O)cc1)C(=O)N[C@@H](CCCCN)C(=O)N[C@@H](CCC(N)=O)C(=O)N[C@@H](CCCN=C(N)N)C(=O)N[C@H](C(=O)N[C@@H](CCCCN)C(=O)N[C@@H](CC(N)=O)C(=O)N[C@@H](CCCCN)C(N)=O)C(C)C)C(C)C)C(C)C)[C@@H](C)O (some centres undefined) [PACAP(3-38)] (H-DG[Ile(3ξ)]FTDSYSRYRKQMAVKKYLAAVLGKRYKQRVKNK-NH2)
800 | CCC(C)[C@H](NC(=O)CN)C(=O)N[C@@H](Cc1ccccc1)C(=O)N[C@H](C(=O)N[C@@H](CC(=O)O)C(=O)N[C@@H](CO)C(=O)N[C@@H](Cc1ccc(O)cc1)C(=O)N[C@@H](CO)C(=O)N[C@@H](CCCN=C(N)N)C(=O)N[C@@H](Cc1ccc(O)cc1)C(=O)N[C@@H](CCCN=C(N)N)C(=O)N[C@@H](CCCCN)C(=O)N[C@@H](CCC(N)=O)C(=O)N[C@@H](CCSC)C(=O)N[C@@H](C)C(=O)N[C@H](C(=O)N[C@@H](CCCCN)C(=O)N[C@@H](CCCCN)C(=O)N[C@@H](Cc1ccc(O)cc1)C(=O)N[C@@H](CC(C)C)C(=O)N[C@@H](C)C(=O)N[C@@H](C)C(=O)N[C@H](C(=O)N[C@@H](CC(C)C)C(N)=O)C(C)C)C(C)C)[C@@H](C)O (some centres undefined) [PACAP(4-27)] (H-G[Ile(3ξ)]FTDSYSRYRKQMAVKKYLAAVL-NH2)
800 | CCC(C)[C@H](NC(=O)CN)C(=O)N[C@@H](Cc1ccccc1)C(=O)N[C@H](C(=O)N[C@@H](CC(=O)O)C(=O)N[C@@H](CO)C(=O)N[C@@H](Cc1ccc(O)cc1)C(=O)N[C@@H](CO)C(=O)N[C@@H](CCCN=C(N)N)C(=O)N[C@@H](Cc1ccc(O)cc1)C(=O)N[C@@H](CCCN=C(N)N)C(=O)N[C@@H](CCCCN)C(=O)N[C@@H](CCC(N)=O)C(=O)N[C@@H](CCSC)C(=O)N[C@@H](C)C(=O)N[C@H](C(=O)N[C@@H](CCCCN)C(=O)N[C@@H](CCCCN)C(=O)N[C@@H](Cc1ccc(O)cc1)C(=O)N[C@@H](CC(C)C)C(=O)N[C@@H](C)C(=O)N[C@@H](C)C(=O)N[C@H](C(=O)N[C@@H](CC(C)C)C(=O)NCC(=O)N[C@@H](CCCCN)C(=O)N[C@@H](CCCN=C(N)N)C(=O)N[C@@H](Cc1ccc(O)cc1)C(=O)N[C@@H](CCCCN)C(=O)N[C@@H](CCC(N)=O)C(=O)N[C@@H](CCCN=C(N)N)C(=O)N[C@H](C(=O)N[C@@H](CCCCN)C(=O)N[C@@H](CC(N)=O)C(=O)N[C@@H](CCCCN)C(N)=O)C(C)C)C(C)C)C(C)C)[C@@H](C)O (some centres undefined) [PACAP(4-38)] (H-G[Ile(3ξ)]FTDSYSRYRKQMAVKKYLAAVLGKRYKQRVKNK-NH2)
